This is an account of results in patent US7745399B2, “Hsp70 peptide stimulating natural killer (NK) cell activity and uses thereof” (multimmune GmbH, priority 2000, dated 2010).

The subject of assay [1] is NK cells. In words: NK cell stimulation (3H thymidine uptake assays and 51Cr release assays). Type of assay: cell-based, human. The procedure:
(§1) The proliferative capacity of NK and T cells against different Hsp70 peptides and Hsp70 protein (loc. sit) was determined in a standard ^3H thymidine uptake assay (22). Viable cells (5×10^4 cells/100 μl) were seeded in 96-well flat-bottom microtiter plates (Greiner Nuertingen, Germany) in supplemented RPMI-1640 medium containing 100 IU IL-2 and Hsp70 protein (10 μg/ml) or different amounts of Hsp70 peptides ranging from 0.02 up to 10 μg/ml. As an internal control the proliferation against IL-2 alone was measured in parallel. After a 24 or 48 hour incubation period the cells were pulsed with ^3H thymidine (1 μCi/well) and the total uptake was measured following an 18 hour incubation period at 37° C. in a liquid scintillation counter (Beckmann instruments, Munich, Germany).
The cytolytic activity of NK cells was monitored in a standard ^51Cr assay (23). Dilutions of the effector cells were incubated with ^51Cr-labeled (100 μCi of Na^51CrO4, NEN-Dupont, Boston, Mass.) tumor target cells (3×10^3 cells per well) in duplicates at a final volume of 200 μl RPMI-1640 medium supplemented with 10% FCS at 37° C. for 4 h in 96-well U-bottom plates (Greiner, Nuertingen, Germany). After the incubation period supernatants were collected and the radioactivity was counted in a γ-counter (Packard Instruments). The percentage of specific lysis was determined according to the equation: (experimental release−spontaneous release)/(maximum release−spontaneous release)×100. The percentage spontaneous release was always<15% for each target cell line.

The test system of assay [2] is NK cells. The conditions noted are these: Table II, complete proteins; cited from earlier work.
The test system of assay [3] is NK cells. In words: 3H thymidine uptake assay, proliferative response of NK cells. In kind it is cell-based, human. The conditions noted are these: IL-2 100 IU/ml plus peptide 0.02 up to 8 μg/ml. As to the method: Comparison of the proliferative response of NK cells against Hsp70 peptides. NK cells were stimulated either with IL-2 (100 IU/ml) alone or with IL-2 plus peptides NLL (8-mer, FIG. 1a), TKD (14-mer, FIG. 1b) and GIPP (13 mer, FIG. 1c) at concentrations 0.02, 0.2, 2, 4 and 8 μg/ml. As a positive control NK cells were stimulated with rHsp70 protein at a concentration of 10 μg/ml. The proliferative response of NK cells was measured 72 h after peptide incubation and an 18 h incubation period with ^3H thymidine (1 μCi/ml). In FIG. 1e stimulation with TKD in a more refined scale between 0.1 and 3 μg is shown. […] Values are given as the means of four independent experiments+/−SD.
(§2) Briefly, monocyte depleted peripheral blood lymphocytes (PBL) were isolated from buffy coats of healthy human volunteers (Multhoff et al., 1995a). NK cells were purified by adherence selection following a modified protocol of Vujanovic (1993). T cells remain in the supernatant cell population.
as §1

Assay [4] deals with CX+ tumor cells. In words: 51Cr release assay (CML), cytolytic activity of stimulated NK cells against CX+. In kind it is cell-based, human. The note with it: NK cells stimulated 4 days with IL-2 100 IU/ml plus peptide 2 μg/ml, compared to IL-2 alone or IL-2 plus NLL. The procedure:
(§3) Cytolytic activity of NK cells stimulated with IL-2 alone or with IL-2 plus the 14-mer peptide TKD or with IL-2 plus the 8-mer peptide NLL. Cytolytic activity of NK cells either stimulated with low dose IL-2 (100 IU/ml) alone or with IL-2 plus the 14-mer peptide TKD (2 μg/ml) or with IL-2 plus the 8-mer peptide NLL (2 μg/ml) for 4 days. As target cells ^51Cr labeled CX+ (FIG. 2a) and CX− (FIG. 2b) tumor cells, that differ with respect to their capability to express Hsp70 on the plasma membrane, were used. The results are expressed as the percentage of specific lysis at varying E:T ratios ranging from 2:1 up to 40:1. […]
(§4) The colon carcinoma sublines CX+ (>90% Hsp70 positive cells) and CX− (<20% Hsp70 positive cells) described in patent application EP-A2-084 300 5 and originally derived from CX2 colon carcinoma cells (Tumorzentrum Heidelberg, TZB 610005, Germany) that differ with respect to their capacity to express Hsp70 on their plasma membrane were cultured at 37° C., 5% CO2 in RPMI-1640 medium (Gibco, Eggenstein, Germany) supplemented with heat-inactivated 10% FCS (Gibco) and 2 mM L-glutamine and antibiotics (penicillin/streptomycin). […] All cell lines were free from mycoplasma contamination as determined by repeated testing using the 6-methylpurin desoxyribosid assay (Boehringer Mannheim, Germany).
(§5) The cytolytic activity of NK cells was monitored in a standard ^51Cr assay (23). […]

Assay [5] concerns T cells. In words: 3H thymidine uptake assay, proliferative response of T cells. Type of assay: cell-based, human. The conditions noted are these: peptides plus low dose IL-2 (100 IU/ml), any tested concentration. The procedure:
as §2, §1

In assay [6] the test system is NK cells. Put plainly: FACScan phenotypic characterization of stimulated NK cells. The note with it: NK cells stimulated with IL-2 plus peptide 2 μg/ml. In kind it is cell-based, human. The procedure: Cytolytic activity of NK cells stimulated with IL-2 alone or with IL-2 plus the 14-mer peptide TKD or with IL-2 plus the 8-mer peptide NLL. Cytolytic activity of NK cells either stimulated with low dose IL-2 (100 IU/ml) alone or with IL-2 plus the 14-mer peptide TKD (2 μg/ml) or with IL-2 plus the 8-mer peptide NLL (2 μg/ml) for 4 days. As target cells ^51Cr labeled CX+ (FIG. 2a) and CX− (FIG. 2b) tumor cells, that differ with respect to their capability to express Hsp70 on the plasma membrane, were used. The results are expressed as the percentage of specific lysis at varying E:T ratios ranging from 2:1 up to 40:1. The percentage spontaneous release for each tumor target cell line was less than 20%.
Directly fluorescein-conjugated mAb (CD3FITC/CD16/CD56^PE, Becton Dickinson, Heidelberg, Germany) were added to cell suspensions (0.1×10^6 cells), incubated for 20 min on ice, washed and analysed on a FACScan instrument (Becton Dickinson, Heidelberg, Germany). The percentage of positively stained cells was defined as the number of specifically stained, viable (propidium-iodide negative) cells minus the number of cells stained with an isotype matched control antibody on a FACScan instrument (Becton Dickinson, Heidelberg, Germany).

For assay [7], the system named is CX− tumor cells. Put plainly: 51Cr release assay (CML), cytolytic activity of stimulated NK cells against CX-. In kind it is cell-based, human. The conditions noted are these: NK cells stimulated 4 days with IL-2 100 IU/ml plus peptide 2 μg/ml. As to the method: as §3, §4, §5
The test system of assay [8] is NK cells. The note with it: cited from earlier work.
The mark [9] stands for this setting: Table III, peptides only, 3H thymidine uptake and 51Cr release assays.

Where two headings read alike, the source gives them in different places.

“T K D N N L L G R F E L (TKDNNLLGRFEL) [TKD12, peptide, Hsp70 aa 450-461]”: in assay [1] (setting [9]), the NK cell stimulation result is recorded as “no”.

“T K D N N L L G R F E L T G (TKDNNLLGRFELTG) [HOM, peptide, Hsp70hom aa 450-463]”: in assay [1] (setting [9]), the NK cell stimulation result was “low”.

Consider “Hsc70 (complete protein): Hsc70 complete protein”, for which, in assay [2], the NK cell stimulation result is recorded as “no”.

“T K D N N L L G R F E L S G (TKDNNLLGRFELSG) [14-mer peptide, Hsp70 aa 450-463]”: the “proliferative capacity of NK cells” value in assay [3] is “comparable immunostimulatory capacity like full length Hsp70 protein”. For the same substance, in assay [4], the “lytic activity against Hsp70 expressing CX+ tumor cells” value is “significantly enhanced lytic activity”. The T cell growth result in assay [5] was “none of the three peptides NLL, GIPP or TKD stimulates T cell growth”. Besides, in assay [6], the CD3 positive cells is reported as 6% and the CD16/56 positive cells is on record as 79%. Also, the “lysis of CX− tumor cells” value in assay [7] is “no significant differences”. Besides, the NK cell stimulation result in assay [1] (Table II, peptides) is “yes”. For the same substance, the NK cell stimulation result in assay [1] (setting [9]) is recorded as “yes”.

Turning to “rHsp70: Human recombinant Hsp70 protein from StressGen (SPP-755)”, the optimal stimulatory dose in assay [8] (defined previously) was 10 µg/mL. Also, the “proliferative response of human NK cells” value in assay [8] (low dose IL-2 (100 IU/ml) plus protein, compared to IL-2 only) is on record as “increase the proliferative response”.

Turning to “Dank (complete protein): DnaK complete protein”, the NK cell stimulation entry in assay [2] was “no”.

With NLLGRFEL, in assay [3], the “proliferative capacity of NK cells” value was “did not stimulate”. For the same substance, the T cell growth result in assay [5] is listed as “none of the three peptides NLL, GIPP or TKD stimulates T cell growth”. Further, in assay [6], the CD3 positive cells is 8% and the CD16/56 positive cells was found to be 80%. Also, the “lysis of CX− tumor cells” value in assay [7] is “no significant differences”. For the same substance, the NK cell stimulation entry in assay [1] (Table II, peptides) was “no”. The NK cell stimulation entry in assay [1] (setting [9]) was “no”.

In the case of “NLLGRFELSGIPP [13-mer C-terminal extended peptide, Hsp70 aa 454-466]”, the “proliferative capacity of NK cells” value in assay [3] is recorded as “did not stimulate”. Further, in assay [5], the T cell growth entry was “none of the three peptides NLL, GIPP or TKD stimulates T cell growth”. For the same substance, the NK cell stimulation entry is given as “no” in assay [1] (Table II, peptides) and “no” in assay [1] (setting [9]).

With “Hsp70hom (complete protein): testis specific member of the Hsp70 family, complete protein”, in assay [2], the NK cell stimulation entry is given as “yes”.

“A A D N K S L G Q F N L D G (AADNKSLGQFNLDG) [DNAK, peptide, Dnak aa 447-460]”: the NK cell stimulation result in assay [1] (setting [9]) was “no”.

Consider “T K D N N L L G K F E L T G (TKDNNLLGKFELTG) [Hsc70, peptide, Hsc70 aa 450-463]”, for which, in assay [1] (setting [9]), the NK cell stimulation entry was “no”.

In the case of “EGERAMTKDNNLLGRFELSG (EGERAMTKDNNLLGRFELSG) [Hsp70 (peptide) 441-463, 20 mer peptide of Hsp70]”, the NK cell stimulation entry in assay [1] (Table II, peptides) is reported as “yes”.

As to “G E R A M T K D N N L L G R F E L S G (GERAMTKDNNLLGRFELSG) [Hsp70 445-463, peptide, Hsp70 aa 445-463]”, the NK cell stimulation entry in assay [1] (setting [9]) is “yes”.
